{"source": "patent US7541020B2", "about": "“Aminoalkyl glucosaminide phosphate compounds and their use as adjuvants and immunoeffectors” (priority 1997, dated 2009)", "key": {"influenza A/HK/68": {"test_system": "influenza A/HK/68", "conditions": "mouse, in vivo"}, "[1]": {"test_system": "hepatitis B surface antigen (HBsAg)", "experiment": "Serum anti-HBsAg antibody titers after intranasal HBsAg + AGP-AF (ELISA)", "format": "in vivo, BALB/c mice", "conditions": "for Anti HBsAg Titer^−1 IgG1 / Anti HBsAg Titer^−1 IgG2a: K = 10^3"}, "[2]": {"test_system": "Hepatitis B surface antigen", "experiment": "Randomized controlled clinical study of AgB/RC-210-04 versus AgB: seroprotection, seroconversion, anti-HBsAg titers", "format": "in vivo, human", "conditions": "healthy adults; RC-210-04 added to AgB"}, "[3]": {"test_system": "hepatitis B surface antigen (HBsAg)", "experiment": "Anti-HBsAg antibody titer with AGP-SE (ELISA plates coated with HBsAg or p72 peptide)", "conditions": "sera day 28 post 2°, 25 μg AGP-SE"}, "[4]": {"test_system": "hepatitis B surface antigen (HBsAg)", "experiment": "Vaginal wash anti-HBsAg antibody after intranasal HBsAg + AGP-AF", "format": "in vivo, BALB/c mice", "conditions": "10 days after the booster immunization; intranasal HBsAg + 10 μg AGP-AF", "excerpt": "Vaginal samples were collected 10 days after the booster immunization and assayed for anti-HBsAg antibody."}, "tetanus toxoid": {"test_system": "tetanus toxoid", "conditions": "mouse, in vivo"}, "[5]": {"conditions": "day 22 post 2°, HBsAg + 10 μg AGP-AF intranasally"}, "[6]": {"conditions": "serum, day 21 post 3°, intranasal HBsAg + 10 μg AGP-AF"}, "[7]": {"conditions": "ELISA plates coated with p72 peptide"}}, "note": "Values joined by “and” are separate entries in the source; they are usually repeats but may differ in a detail not shown here. Equal entries are not always repeated."}
{"substance": "2-[(R)-3-Tetradecanoyloxytetradecanoylamino]ethyl 2-Deoxy-4-O-phosphono-3-O-[(R)-3-tetradecanoyoxytetradecanoyl]-2-[(R)-3-tetradecanoyoxytetradecanoylamino]-β-D-glucopyranoside Triethylammonium Salt [B19]", "values": [{"measurement": "Percent Survival", "setting": "influenza A/HK/68", "result": 50, "unit": "%"}, {"measurement": "Titer−1 IgG1", "setting": "influenza A/HK/68", "result": 100}, {"measurement": "Titer−1 IgG2a", "setting": "influenza A/HK/68", "result": 800}, {"measurement": "Titer−1 IgG2b", "setting": "influenza A/HK/68", "result": 6400}, {"measurement": "Titer−1 Total IgG", "setting": "influenza A/HK/68", "result": "12,800"}, {"measurement": "Anti HBsAg Titer^−1 IgA", "setting": "[1]; [5]", "result": "1,600"}, {"measurement": "Anti HBsAg Titer^−1 IgG1", "setting": "[1]; [5]", "result": 500, "unit": "K"}, {"measurement": "Anti HBsAg Titer^−1 IgG2a", "setting": "[1]; [5]", "result": 64, "unit": "K"}, {"measurement": "Anti HBsAg Titer^−1 IgG1", "setting": "[1]; [6]", "result": 2000, "unit": "K"}, {"measurement": "Anti HBsAg Titer^−1 IgG2a", "setting": "[1]; [6]", "result": 500, "unit": "K"}, {"measurement": "Anti HBsAg Titer^−1 IgA", "setting": "[1]; [6]", "result": "12,800"}, {"measurement": "antibody responses to Hepatitis B surface antigen (in words)", "setting": "[2]", "result": "faster and greater antibody responses"}, {"measurement": "Anti-HBsAg Titer^−1 HBsAg IgG1", "setting": "[3]; ELISA plates coated with HBsAg", "result": 1024, "unit": "K"}, {"measurement": "Anti-HBsAg Titer^−1 HBsAg IgG2a", "setting": "[3]; ELISA plates coated with HBsAg", "result": 1024, "unit": "K"}, {"measurement": "Anti-HBsAg Titer^−1 p72-Peptide IgG1", "setting": "[3]; [7]", "result": 64, "unit": "K"}, {"measurement": "Anti-HBsAg Titer^−1 p72-Peptide IgG2a", "setting": "[3]; [7]", "result": 128, "unit": "K"}, {"measurement": "Vaginal Wash Anti-HBsAg Titer^−1 IgA", "setting": "[4]", "result": 400}, {"measurement": "Vaginal Wash Anti-HBsAg Titer^−1 IgG", "setting": "[4]", "result": "<50"}, {"measurement": "Anti-Tetanus Toxoid Titer^−1 Fecal Extract IgA", "setting": "tetanus toxoid", "result": "3200 and 6400"}, {"measurement": "Anti-Tetanus Toxoid Titer^−1 Fecal Extract IgG", "setting": "tetanus toxoid", "result": 25}, {"measurement": "Anti-Tetanus Toxoid Titer^−1 Serum Pools IgG1", "setting": "tetanus toxoid", "result": "2M and 4M"}, {"measurement": "Anti-Tetanus Toxoid Titer^−1 Vaginal Wash IgA", "setting": "tetanus toxoid", "result": "1600 and 3200"}, {"measurement": "Anti-Tetanus Toxoid Titer^−1 Vaginal Wash IgG", "setting": "tetanus toxoid", "result": "200 and 400"}]}
